Molecules are shown by their SMILES.

Common to all, as to conditions: male, Sprague-Dawley, rat, in vivo
The test system of one data set is P450 ISF/B-NF. The procedure: (§1) Animals were monitored daily for physical condition and body weight, and blood samples were assayed for serum alanine transferase (ALT) and aspartate aminotransferase (AST) levels using a diagnostic kit (Sigma Aldrich). Three animals per group were sacrificed approximately 12 hours (h), 24 h, 72 h, 168 h, 336 h and 672 h following the last dose administered. Observed gross pathology and liver weights were recorded at time of necropsy. Liver, kidney, brain, spleen and pancreas from each rat were harvested, flash frozen in liquid nitrogen, and stored at −80° C.
(§2) Frozen liver was homogenized and lysed in TRIZOL reagent (Cat. #10296-028; Life Technologies) following the modifications for liver RNA isolation. Poly(A+) RNA was isolated using an OLIGOTEX kit (Qiagen, Carlsbad, Calif.) and labeled with either Cy3 or Cy5-labeled primers (Operon Technologies, Alameda, Calif.) using the GEMBRIGHT labeling kit (Incyte Genomics). MRNA isolated from tissues of rats dosed with PB was labeled with Cy5 and mRNA isolated from tissues of rats dosed with DMSO was labeled with Cy3. Quantitative and differential expression pattern control cDNAs were added to each labeling reaction. Labeled cDNA was treated with 0.5 M sodium bicarbonate (pH9.2) for 20 min at 85° C. to degrade the RNA and purified using two successive CHROMA SPIN 30 gel filtration spin columns (Clontech, Palo Alto, Calif.). Cy3 labeled control sample and Cy5 labeled experimental sample were combined and precipitated in glycogen, sodium acetate, and ethanol.
(§3) Hybridization reactions contained 9 microliters of probe mixture consisting of 0.2 micrograms each of both Cy3 and Cy5 labeled cDNA synthesis products in 5×SSC, 0.2% SDS hybridization buffer. The probe mixture was heated to 65° C. for 5 min and was aliquoted onto the microarray surface and covered with an 1.8 cm^2 coverslip. The arrays were transferred to a waterproof chamber having a cavity just slightly larger than a microscope slide. The chamber was kept at 100% humidity internally by the addition of 140 microliters of 5×SSC in a corner of the chamber. The chamber containing the arrays was incubated for about 6.5 hours at 60° C. The arrays were washed for 10 min at 45° C. in low stringency wash buffer (1×SSC, 0.1% SDS), three times for 10 min each at 45 ° C. in high stringency wash buffer (0.1×SSC), and then dried.
(§4) The microscope used to detect the reporter-labeled hybridization complexes was outfitted with an Innova 70 mixed gas 10 W laser (Coherent Lasers, Santa Clara, Calif.) capable of generating spectral lines at 488 nm for excitation of Cy3, and 632 nm for excitation of Cy5. The excitation laser light was focused on the array using a 20X microscope objective (Nikon). […]

Another data set deals with P450 LA-omega. The procedure:
as §1, §2, §3, §4

Another data set has as its system P450 MCA-inducible. The protocol: as §1, §2, §3, §4
In a further data set the test system is SEQ ID NOs: 1-47. The procedure:
as §1, §2, §3, §4

As for `c1ccc2c(c1)cc1ccc3cccc4ccc2c1c34` [benzo(a)pyrene], the “P450 ISF/B-NF upregulated at least once during the time course” value with P450 ISF/B-NF is “greater than 3 fold”. Also, in the data set with P450 LA-omega, the “P450 LA-omega upregulated at least once during the time course” value is “greater than 3 fold”. The “P450 MCA-inducible upregulated at least once during the time course” value in the data set with P450 MCA-inducible is recorded as “greater than 3 fold”. Also, the “SEQ ID NOs: 1-47 up-regulated or downregulated at least once during the time course” value with SEQ ID NOs: 1-47 was “at least 3 fold”.

Source of the values: US6403778B1, “Toxicological response markers” (Incyte Genomics, Inc., priority 1998, dated 2002).
